Measurements: patent publication US9695155B2, “Herbicidal substituted pyrimidinyloxy benzene compounds” (E. I. DU PONT DE NEMOURS AND COMPANY, priority 2013, dated 2017)

Assays:
barnyardgrass [1] = experiment: Test A preemergence; type: in vivo, Echinochloa crus-galli; conditions: for Barnyardgrass plant response rating (0 to 100 scale, 0 is no effect, 100 is complete control): 125 g ai/ha; for Barnyardgrass plant response rating: 500 g ai/ha, 0 to 100 scale where 0 is no effect and 100 is complete control
How it was run: (§1)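 Compounds in non-phytotoxic solvent with surfactant applied as soil spray preemergence, or postemergence to plants 2-10 cm at one- to two-leaf stage, in loam/sand. After approximately 10 days in greenhouse, injury rated visually versus untreated controls, 0 (no effect) to 100 (complete control).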

large (Lg) crabgrass [2] = experiment: Test A preemergence; type: in vivo, Digitaria sanguinalis; conditions: for Crabgrass, Large plant response rating (0 to 100 scale): 125 g ai/ha; for Crabgrass, Large plant response rating: 500 g ai/ha, 0 to 100 scale where 0 is no effect and 100 is complete control
How it was run: as §1

giant foxtail [3] = experiment: Test A preemergence; type: in vivo, Setaria faberii; conditions: for Foxtail, Giant plant response rating (0 to 100 scale): 125 g ai/ha; for Foxtail, Giant plant response rating: 500 g ai/ha, 0 to 100 scale where 0 is no effect and 100 is complete control
How it was run: as §1

morningglory [4] = experiment: Test A preemergence; type: in vivo, Ipomoea spp.; conditions: for Morningglory plant response rating (0 to 100 scale): 125 g ai/ha; for Morningglory plant response rating: 500 g ai/ha, 0 to 100 scale where 0 is no effect and 100 is complete control
How it was run: as §1

pigweed [5] = experiment: Test A preemergence; type: in vivo, Amaranthus retroflexus; conditions: for Pigweed plant response rating (0 to 100 scale): 125 g ai/ha; for Pigweed plant response rating: 500 g ai/ha, 0 to 100 scale where 0 is no effect and 100 is complete control
How it was run: as §1

velvetleaf [6] = experiment: Test A preemergence; type: in vivo, Abutilon theophrasti; conditions: for Velvetleaf plant response rating (0 to 100 scale): 125 g ai/ha; for Velvetleaf plant response rating: 500 g ai/ha, 0 to 100 scale where 0 is no effect and 100 is complete control
How it was run: as §1

wheat [7] = experiment: Test A preemergence; type: in vivo, Triticum aestivum; conditions: for Wheat plant response rating (0 to 100 scale): 125 g ai/ha; for Wheat plant response rating: 500 g ai/ha, 0 to 100 scale where 0 is no effect and 100 is complete control
How it was run: as §1

corn [8] = experiment: Test A preemergence; type: in vivo, Zea mays; conditions: for Corn plant response rating (0 to 100 scale): 125 g ai/ha; for Corn plant response rating: 500 g ai/ha, 0 to 100 scale where 0 is no effect and 100 is complete control
How it was run: as §1

barnyardgrass [9] = experiment: Test A postemergence; type: in vivo, Echinochloa crus-galli; conditions: 0 to 100 scale where 0 is no effect and 100 is complete control; for Barnyardgrass plant response rating: 125 g ai/ha; for Plant response rating, Barnyardgrass: 500 g ai/ha
How it was run: as §1

large (Lg) crabgrass [10] = experiment: Test A postemergence; type: in vivo, Digitaria sanguinalis; conditions: 0 to 100 scale where 0 is no effect and 100 is complete control; for Crabgrass, Large plant response rating: 125 g ai/ha; for Plant response rating, Crabgrass, Large: 500 g ai/ha
How it was run: as §1

giant foxtail [11] = experiment: Test A postemergence; type: in vivo, Setaria faberii; conditions: 0 to 100 scale where 0 is no effect and 100 is complete control; for Foxtail, Giant plant response rating: 125 g ai/ha; for Plant response rating, Foxtail, Giant: 500 g ai/ha
How it was run: as §1

morningglory [12] = experiment: Test A postemergence; type: in vivo, Ipomoea spp.; conditions: 0 to 100 scale where 0 is no effect and 100 is complete control; for Morningglory plant response rating: 125 g ai/ha; for Plant response rating, Morningglory: 500 g ai/ha
How it was run: as §1

pigweed [13] = experiment: Test A postemergence; type: in vivo, Amaranthus retroflexus; conditions: 0 to 100 scale where 0 is no effect and 100 is complete control; for Pigweed plant response rating: 125 g ai/ha; for Plant response rating, Pigweed: 500 g ai/ha
How it was run: as §1

velvetleaf [14] = experiment: Test A postemergence; type: in vivo, Abutilon theophrasti; conditions: 0 to 100 scale where 0 is no effect and 100 is complete control; for Velvetleaf plant response rating: 125 g ai/ha; for Plant response rating, Velvetleaf: 500 g ai/ha
How it was run: as §1

wheat [15] = experiment: Test A postemergence; type: in vivo, Triticum aestivum; conditions: 0 to 100 scale where 0 is no effect and 100 is complete control; for Wheat plant response rating: 125 g ai/ha; for Plant response rating, Wheat: 500 g ai/ha
How it was run: as §1

corn [16] = experiment: Test A postemergence; type: in vivo, Zea mays; conditions: 0 to 100 scale where 0 is no effect and 100 is complete control; for Corn plant response rating: 125 g ai/ha; for Plant response rating, Corn: 500 g ai/ha
How it was run: as §1

rice = experiment: Test B flooded paddy test; type: in vivo, Oryza sativa; conditions: Flood, 250 g ai/ha; 0 to 100 scale where 0 is no effect and 100 is complete control
How it was run: (§2)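 Post-emergence paddy-water application at the 2-leaf stage, with 3 cm flood kept for the whole test. Response was judged visually relative to controls after 13 to 15 greenhouse days, 0 indicating no effect and 100 complete control.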

sedge, umbrella = experiment: Test B flooded paddy test; type: in vivo, Cyperus difformis; conditions: Flood, 250 g ai/ha; 0 to 100 scale where 0 is no effect and 100 is complete control
How it was run: as §2

Heteranthera limosa = experiment: Test B flooded paddy test; type: in vivo; conditions: Flood, 250 g ai/ha; 0 to 100 scale where 0 is no effect and 100 is complete control
How it was run: as §2

barnyardgrass [17] = experiment: Test B flooded paddy test; type: in vivo, Echinochloa crus-galli; conditions: Flood, 250 g ai/ha; 0 to 100 scale where 0 is no effect and 100 is complete control
How it was run: as §2

Structure (SMILES) | Barnyardgrass plant response rating (0 to 100 scale, 0 is no effect, 100 is complete control) (barnyardgrass [1]) | Barnyardgrass plant response rating (barnyardgrass [1]) | Crabgrass, Large plant response rating (0 to 100 scale) (large (Lg) crabgrass [2]) | Crabgrass, Large plant response rating (large (Lg) crabgrass [2]) | Foxtail, Giant plant response rating (0 to 100 scale) (giant foxtail [3]) | Foxtail, Giant plant response rating (giant foxtail [3]) | Morningglory plant response rating (0 to 100 scale) (morningglory [4]) | Morningglory plant response rating (morningglory [4]) | Pigweed plant response rating (0 to 100 scale) (pigweed [5]) | Pigweed plant response rating (pigweed [5]) | Velvetleaf plant response rating (0 to 100 scale) (velvetleaf [6]) | Velvetleaf plant response rating (velvetleaf [6]) | Wheat plant response rating (0 to 100 scale) (wheat [7]) | Wheat plant response rating (wheat [7]) | Corn plant response rating (0 to 100 scale) (corn [8]) | Corn plant response rating (corn [8]) | Barnyardgrass plant response rating (barnyardgrass [9]) | Plant response rating, Barnyardgrass (barnyardgrass [9]) | Crabgrass, Large plant response rating (large (Lg) crabgrass [10]) | Plant response rating, Crabgrass, Large (large (Lg) crabgrass [10]) | also measured
Fc1cc(Oc2ncc(Cl)cn2)c(-n2cc(Br)cn2)cc1F [Compound 196] | 0 | 40 | 60 | 100 | 50 | 90 | 0 | 0 | 90 | 100 | 20 | 40 | 0 | 0 | 0 | 0 | 10 | 50 | 30 | 90 | Foxtail, Giant plant response rating (giant foxtail [11]): 30; Plant response rating, Foxtail, Giant (giant foxtail [11]): 80; Morningglory plant response rating (morningglory [12]): 20; Plant response rating, Morningglory (morningglory [12]): 80; Pigweed plant response rating (pigweed [13]): 100; Plant response rating, Pigweed (pigweed [13]): 100; Velvetleaf plant response rating (velvetleaf [14]): 100; Plant response rating, Velvetleaf (velvetleaf [14]): 100; Wheat plant response rating (wheat [15]): 0; Plant response rating, Wheat (wheat [15]): 10; Corn plant response rating (corn [16]): 10; Plant response rating, Corn (corn [16]): 40; Plant response rating, Rice (rice): 0; Plant response rating, Sedge, Umbrella (sedge, umbrella): 70; Plant response rating, Ducksalad (Heteranthera limosa): 85; Plant response rating, Barnyardgrass (barnyardgrass [17]): 20
C#Cc1cccc(Oc2ncc(Cl)cn2)c1-n1cc(Br)cn1 [Compound 199] | 20 | 80 | 100 | 100 | 90 | 100 | 0 | 20 | 90 | 100 | 20 | 90 | 0 | 0 | 0 | 0 | 30 | 80 | 40 | 90 | Foxtail, Giant plant response rating (giant foxtail [11]): 70; Plant response rating, Foxtail, Giant (giant foxtail [11]): 90; Morningglory plant response rating (morningglory [12]): 40; Plant response rating, Morningglory (morningglory [12]): 60; Pigweed plant response rating (pigweed [13]): 80; Plant response rating, Pigweed (pigweed [13]): 100; Velvetleaf plant response rating (velvetleaf [14]): 70; Plant response rating, Velvetleaf (velvetleaf [14]): 100; Wheat plant response rating (wheat [15]): 0; Plant response rating, Wheat (wheat [15]): 30; Corn plant response rating (corn [16]): 20; Plant response rating, Corn (corn [16]): 60; Plant response rating, Rice (rice): 20; Plant response rating, Sedge, Umbrella (sedge, umbrella): 70; Plant response rating, Ducksalad (Heteranthera limosa): 70; Plant response rating, Barnyardgrass (barnyardgrass [17]): 0
O=Cc1cccc(Oc2ncc(Br)cn2)c1-n1cc(Cl)cn1 [Compound 206] | 0 | 0 | 0 | 0 | 0 | 0 | 0 | 0 | 0 | 50 | 0 | 0 | 0 | 0 | 0 | 0 | 0 | 0 | 0 | 0 | Foxtail, Giant plant response rating (giant foxtail [11]): 0; Plant response rating, Foxtail, Giant (giant foxtail [11]): 0; Morningglory plant response rating (morningglory [12]): 0; Plant response rating, Morningglory (morningglory [12]): 0; Pigweed plant response rating (pigweed [13]): 0; Plant response rating, Pigweed (pigweed [13]): 0; Velvetleaf plant response rating (velvetleaf [14]): 10; Plant response rating, Velvetleaf (velvetleaf [14]): 20; Wheat plant response rating (wheat [15]): 0; Plant response rating, Wheat (wheat [15]): 0; Corn plant response rating (corn [16]): 0; Plant response rating, Corn (corn [16]): 0; Plant response rating, Rice (rice): 0; Plant response rating, Sedge, Umbrella (sedge, umbrella): 0; Plant response rating, Ducksalad (Heteranthera limosa): 0; Plant response rating, Barnyardgrass (barnyardgrass [17]): 0
N#Cc1cccc(Oc2ncc(Cl)cn2)c1-n1cccn1 [Compound 208] | 0 | 70 | 20 | 100 | 20 | 90 | 0 | 30 | 30 | 100 | 0 | 50 | 0 | 20 | 0 | 0 | 0 | 0 | 0 | 20 | Foxtail, Giant plant response rating (giant foxtail [11]): 0; Plant response rating, Foxtail, Giant (giant foxtail [11]): 20; Morningglory plant response rating (morningglory [12]): 20; Plant response rating, Morningglory (morningglory [12]): 80; Pigweed plant response rating (pigweed [13]): 30; Plant response rating, Pigweed (pigweed [13]): 100; Velvetleaf plant response rating (velvetleaf [14]): 40; Plant response rating, Velvetleaf (velvetleaf [14]): 60; Wheat plant response rating (wheat [15]): 0; Plant response rating, Wheat (wheat [15]): 0; Corn plant response rating (corn [16]): 0; Plant response rating, Corn (corn [16]): 20; Plant response rating, Rice (rice): 0; Plant response rating, Sedge, Umbrella (sedge, umbrella): 0; Plant response rating, Ducksalad (Heteranthera limosa): 0; Plant response rating, Barnyardgrass (barnyardgrass [17]): 0
